Source: ChEMBL document CHEMBL6078704, “Redesigning Berberines and Sanguinarines to Target Soluble Epoxide Hydrolase for Enhanced Anti-Inflammatory Efficacy” (J Med Chem, 2024)

Legend:
[1] = tested on: HEK-293T; test: Cytotoxicity against human 293T cells assessed as cell viability at 0.5 to 5 uM measured after 48 hrs by CCK-8 assay; type: toxicity, cell-based; details: dose 0.5-5 µM
[2] = target: T1, Bifunctional epoxide hydrolase 2 (Mus musculus, UniProt P34914); test: Inhibition of male C57BL/6J mouse brain sEH assessed as quantity of 14,15-DHET level measured after 15 mins incubation by HPLC-MS analysis
T1 sequence (P34914 whole entry): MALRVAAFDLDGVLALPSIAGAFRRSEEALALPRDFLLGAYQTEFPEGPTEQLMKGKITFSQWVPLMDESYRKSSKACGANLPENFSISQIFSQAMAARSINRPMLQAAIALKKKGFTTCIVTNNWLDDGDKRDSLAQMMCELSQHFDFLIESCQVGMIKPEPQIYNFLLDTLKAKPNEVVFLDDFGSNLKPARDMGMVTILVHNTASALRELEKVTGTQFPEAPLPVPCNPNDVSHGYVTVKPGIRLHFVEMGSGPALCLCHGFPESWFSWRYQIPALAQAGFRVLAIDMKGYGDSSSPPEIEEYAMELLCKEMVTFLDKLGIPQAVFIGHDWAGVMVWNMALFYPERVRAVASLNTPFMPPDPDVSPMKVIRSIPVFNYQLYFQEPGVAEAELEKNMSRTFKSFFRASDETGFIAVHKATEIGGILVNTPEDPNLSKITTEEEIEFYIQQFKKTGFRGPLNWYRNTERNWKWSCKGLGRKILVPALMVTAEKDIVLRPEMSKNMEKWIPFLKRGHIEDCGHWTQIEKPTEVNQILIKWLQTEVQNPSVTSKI

[3] = tested on: HepG2; test: Cytotoxicity against human HepG2 cells assessed as cell viability at 0.5 to 5 uM measured after 48 hrs by CCK-8 assay; type: toxicity, cell-based; details: hepg2, 48 h, dose 0.5-5 µM
[4] = tested on: Mus musculus; test: Anti-inflammatory activity in carrageen-induced paw edema BALB/c mouse model assessed as inhibition of soft tissue edema and inflammation measured immediately at 0.5 mg/kg, ip measured up to 6 hrs; type: functional
[5] = tested on: Mus musculus; test: Anti-inflammatory activity in carrageen-induced paw edema BALB/c mouse model assessed as inhibition of soft tissue edema and inflammation measured immediately at 20 mg/kg, po measured at 1 to 4 hrs; type: functional; details: time 1-4 hrs
[6] = tested on: Staphylococcus aureus; test: Antimicrobial activity against Staphylococcus aureus ATCC 29213 by microbroth dilution method; type: functional
[7] = tested on: Staphylococcus aureus; test: Antimicrobial activity against methicillin-resistant Staphylococcus aureus 19B120 by microbroth dilution method; type: functional
[8] = tested on: Mus musculus; test: Antiinflammatory activity against cerulein-induced acute pancreatitis in CD1 mouse assessed as increase in plasma 14,15-EET/DHET ratio at 20 mg/kg, ip pretreated with cerulein followed by compound injection on 30 and 150 mins and measured 6 hrs post cerulein treatment relative to model group; type: functional; details: time 30-360 min
[9] = tested on: Mus musculus; test: Antiinflammatory activity against cerulein-induced acute pancreatitis in CD1 mouse assessed as increase in pancreatic 14,15-EET/DHET ratio at 20 mg/kg, ip pretreated with cerulein followed by compound injection on 30 and 150 mins and measured 6 hrs post cerulein treatment relative to model group; type: functional; details: time 30-360 min
[10] = tested on: Mus musculus; test: Antiinflammatory activity against cerulein-induced acute pancreatitis in CD1 mouse assessed as increase in pancreatic 8,9-EET/DHET ratio at 20 mg/kg, ip pretreated with cerulein followed by compound injection on 30 and 150 mins and measured 6 hrs post cerulein treatment relative to model group; type: functional; details: time 30-360 min
[11] = tested on: Mus musculus; test: Antiinflammatory activity against cerulein-induced acute pancreatitis in CD1 mouse assessed as increase in plasma 8,9-EET/DHET ratio at 20 mg/kg, ip pretreated with cerulein followed by compound injection on 30 and 150 mins and measured 6 hrs post cerulein treatment relative to model group; type: functional; details: time 30-360 min

SMILES	IC50 [2] [nM]	Activity [1]	Activity [3]	other results
CCC(=O)N1CCC(CNC(=O)Nc2ccc3c(c2)CN2CCc4cc5c(cc4C2C3)OCO5)CC1 (stereo unspecified)	15.6	Non-toxic	Non-toxic	–
CC(C)CNC(=O)Nc1ccc2c(c1)CN(C)c1c-2ccc2ccccc12	20.5	–	–	–
COc1cc2c(cc1OC)C1Cc3ccc(NC(=O)NCC4COC4)cc3CN1CC2 (stereo unspecified)	2650	–	–	–
COc1cc2c(cc1OC)CN1CCc3cc(NC(=O)NCc4ccc(OC(F)F)cc4)ccc3C1C2 (stereo unspecified)	0.73	Non-toxic	Non-toxic	–
CCC(=O)N1CCC(NC(=O)Nc2ccc(OC(F)(F)F)cc2)CC1	–	–	–	inhibition in vivo at 0.5 mg/kg [4]: 15%; inhibition in vivo at 20 mg/kg [5]: 25%
CCC(=O)N1CCC(CNC(=O)Nc2ccc3c(c2)CN2CCc4cc(OC)c(OC)cc4C2C3)CC1 (stereo unspecified)	18.8	–	–	–
CCC(=O)N1CCC(NC(=O)Nc2ccc3c(c2)CN2CCc4cc5c(cc4C2C3)OCO5)CC1 (stereo unspecified)	97.1	–	–	–
COc1ccc2cc3[n+](cc2c1OC)CCc1cc2c(cc1-3)OCO2 [BERBERINE]	–	–	–	MIC [6]: 64 µg/mL; MIC [7]: 32 µg/mL
COc1cc2c(cc1OC)CN1CCc3cc(NC(=O)NCc4ccc(OC(F)(F)F)cc4)ccc3[C@H]1C2	–	Non-toxic	Non-toxic	fold change (FC) [8]: 3.3; fold change (FC) [9]: 18.5; MIC [6]: > 64 µg/mL; fold change (FC) [10]: 6.7; fold change (FC) [11]: 2; MIC [7]: > 64 µg/mL
COc1cc2c(cc1OC)CN1CCc3cc(NC(=O)NCc4ccc(OC(F)(F)F)cc4)ccc3[C@@H]1C2	–	–	–	inhibition in vivo at 20 mg/kg [5]: 27%
COc1cc2c(cc1OC)-c1cc3ccc(NC(=O)NCc4ccc(OC(F)(F)F)cc4)cc3c(=O)n1CC2	37.6	–	–	–
CN1Cc2cc(NC(=O)NCc3ccc(OC(F)(F)F)cc3)ccc2-c2ccc3ccccc3c21	12.1	–	–	–
COc1cc2c(cc1OC)C1Cc3ccc(NC(=O)NCc4ccc(OC(F)(F)F)cc4)cc3CN1CC2 (stereo unspecified)	0.86	Non-toxic	Non-toxic	inhibition in vivo at 0.5 mg/kg [4]: 35%
CCC(=O)N1CCC(CNC(=O)Nc2ccc3c(c2)CN(C)c2c-3ccc3ccccc23)CC1	6.94	Non-toxic	Non-toxic	–
COc1cc2c(cc1OC)-c1cc3ccc(NC(=O)NCc4ccc(OC(F)(F)F)cc4)cc3c[n+]1CC2	210	–	–	MIC [6]: 8 µg/mL; MIC [7]: 8 µg/mL
COc1cc2c(cc1OC)C1Cc3ccc(NC(=O)NCc4ccc(S(N)(=O)=O)cc4)cc3CN1CC2 (stereo unspecified)	17.3	–	–	–
COc1cc2cc3[n+](cc2cc1OC)CCc1cc(NC(=O)NCc2ccc(OC(F)(F)F)cc2)ccc1-3.[Cl-]	39.1	–	–	MIC [6]: 8 µg/mL; MIC [7]: 4 µg/mL
O=C(NCc1cccc(OC(F)(F)F)c1)Nc1ccc2c(c1)CN1CCc3cc4c(cc3C1C2)OCO4 (stereo unspecified)	2.34	–	–	–
COc1cc2c(cc1OC)C1Cc3ccc(NC(=O)Nc4ccc(OC(F)(F)F)cc4)cc3CN1CC2 (stereo unspecified)	40.7	–	–	–
CC(C)CNC(=O)Nc1ccc2c(c1)CN1CCc3cc4c(cc3C1C2)OCO4 (stereo unspecified)	9.98	–	–	–

Continued, in another order:

IC50 [2] [nM]	SMILES	Activity [1]	Activity [3]	other results
2.55	COc1cc2c(cc1OC)C1Cc3ccc(NC(=O)NCc4cccc(OC(F)(F)F)c4)cc3CN1CC2 (stereo unspecified)	Non-toxic	Non-toxic	inhibition [4]: Active; Reduced Inhibition In Later Stages Of Experiment
15.9	O=C(NCC1CCOCC1)Nc1ccc2c(c1)CN1CCc3cc4c(cc3C1C2)OCO4 (stereo unspecified)	–	–	–
6.13	COc1cc2c(cc1OC)C1Cc3ccc(NC(=O)NCc4ccc(S(C)(=O)=O)cc4)cc3CN1CC2 (stereo unspecified)	Non-toxic	Non-toxic	inhibition in vivo at 0.5 mg/kg [4]: 25%
4.98	COc1cc2c(cc1OC)C1Cc3ccc(NC(=O)NCC4CCCCC4)cc3CN1CC2 (stereo unspecified)	–	–	–
0.67	O=C(NCc1ccc(OC(F)F)cc1)Nc1ccc2c(c1)CN1CCc3cc4c(cc3C1C2)OCO4 (stereo unspecified)	Non-toxic	Non-toxic	–
1.49	O=C(NCc1ccc(OC(F)(F)F)cc1)Nc1ccc2c(c1)CN1CCc3cc4c(cc3C1C2)OCO4 (stereo unspecified)	–	–	–
19.4	COc1cc2c(cc1OC)C1Cc3ccc(NC(=O)NCC4CCOCC4)cc3CN1CC2 (stereo unspecified)	–	–	–
21.2	COc1cc2c(cc1OC)CN1CCc3cc(NC(=O)NCC4CCOCC4)ccc3C1C2 (stereo unspecified)	–	–	–
2.83	COc1cc2c(cc1OC)CN1CCc3cc(NC(=O)NCc4ccc(OC(F)(F)F)cc4)ccc3C1C2 (stereo unspecified)	Non-toxic	Non-toxic	inhibition in vivo at 0.5 mg/kg [4]: 35%
1.33	COc1cc2c(cc1OC)C1Cc3ccc(NC(=O)NCc4ccc(OC(F)F)cc4)cc3CN1CC2 (stereo unspecified)	Non-toxic	Non-toxic	–
5.56	CN1Cc2cc(NC(=O)NCC3CCOCC3)ccc2-c2ccc3ccccc3c21	Non-toxic	Non-toxic	–
143	CCC(=O)N1CCC(NC(=O)Nc2ccc3c(c2)CN2CCc4cc(OC)c(OC)cc4C2C3)CC1 (stereo unspecified)	–	–	–
42.7	CCC(=O)N1CCC(CNC(=O)Nc2ccc3c(c2)CCN2Cc4cc(OC)c(OC)cc4CC32)CC1 (stereo unspecified)	–	–	–
54.3	COc1cc2c(cc1OC)C1Cc3ccc(NC(=O)NC[C@@H]4CCCO4)cc3CN1CC2 (stereo partly specified)	–	–	–
